Test results: US8895032B2, “Dendritic nano-antioxidants” (Central Michigan University, priority 2009, dated 2014)
Values joined by “and” are separate entries in the source; they are usually repeats but may differ in a detail not shown here. Identical values can stand only once.

Experiments:
plasmid DNA pBR 322 = experiment: Protection of plasmid DNA from AAPH damage (agarose electrophoresis); assay type: biochemical; conditions: 10 mM AAPH, 37° C., 4 h
Experimental: The effectiveness of the three compounds to protect DNA from AAPH damage was also determined. The plasmid DNA pBR 322 was incubated with AAPH (final concentration 10 mM) at 37° C. for 4 h with or without antioxidants (final concentrations, 0.35-45 μM), after which the samples were subjected to agarose electrophoresis (Sakihama, Y., et al. Toxicology 2002, 177, 67, incorporated herein by reference in its entirety). […] In the absence of AAPH, pBR 322 was mostly in its supercoiled (S) form (small amount of open circular, O, form was also visible, lane 1 FIG. 25). After reaction with AAPH, the DNA was transformed almost entirely into its open circular form (lane 2, FIG. 25). […] No protection was obtained for both compound 1 and quercetin below 5 μM (lanes 7-10, FIG. 25). […] Compound 3 as well as Trolox were ineffective at all concentrations used in the experiment (0.35-45 μM).
Protection of DNA from free radical damage by the antioxidant dendrimers (compounds 4, 5, and 1) was also evaluated. Plasmid DNA (pBR 322) samples, were incubated with AAPH (final concentration 10 mM) at 37° C. for 4 h with antioxidants (final concentrations, 0.35-45 μM) and subjected to agarose electrophoresis. […] The native DNA was mostly in its supercoiled (S) form (small amount of open circular, O, form was also visible, lane 1, FIG. 31). In the presence of AAPH, the DNA was transformed almost entirely into its O form (lane 2, FIG. 31). […] Negligible DNA protection was afforded by all three dendrimers at ≦2.5 μM (lanes 7-10, FIG. 31). Under similar conditions, Trolox as well as the starting materials for dendrimer synthesis were ineffective at all concentrations.

[1] = beta-carotene-linoleate assay; assay type: biochemical; conditions: for protection of linoleic acid from oxidation: 50° C., 180 min, 470 nm; for % A470 nm: 12 μM, after 180 min incubation at 50° C.
From the text: The ability of the dendritic antioxidants 1, 2, and 3 to protect linoleic acid against free radical damage was examined by the beta-carotene-linoleate model (Jayaprakasha, G. K., et al. Food Chem. 2001, 73, 285, incorporated herein by reference in its entirety). In the absence of an antioxidant, hydroperoxides formed from linoleic acid oxidation bleach the highly unsaturated beta-carotene by a free-radical-mediated phenomenon. The bleaching of the reddish-orange color of beta-carotene was monitored at 470 nm in the presence of various concentrations of antioxidant. The % absorbance (corrected for control without antioxidant) was determined at each antioxidant concentration after incubation at 50° C. for 180 min. The % A470 nm values were determined as follows: % A470 nm=[(At(180 min)/At(0 min))×100]−[(Ac(180 min)/Ac(0 min))×100], wherein At(180 min)=absorbance at 470 nm of antioxidant sample incubated at 50° C. for 180 min, At(0 min)=absorbance at 470 nm of antioxidant sample incubated at 50° C. for 0 min, Ac(180 min)=absorbance at 470 nm of control sample (without antioxidant) incubated at 50° C. for 180 min, and Ac(0 min)=absorbance at 470 nm of control sample (without antioxidant) incubated at 50° C. for 0 min. […] In FIG. 24, protection of linoleic acid from oxidation by various antioxidants is shown for compound 1 (□), compounds 2 and 3 (•), quercetin (x), and Trolox (Δ).

Human LDL = experiment: Protection of LDL from AAPH oxidation (agarose gel electrophoresis); assay type: biochemical; conditions: 10 mM AAPH, 18 h, 37° C.
From the text: The antioxidant activity of compounds 1, 2, and 3 towards biomolecules was examined by studying their ability to protect LDL, fatty acid, and DNA from free radicals. For LDL, AAPH was used to induce free radical damage. AAPH was used instead of copper (Cu^2) ion for LDL oxidation so that the free radical scavenging activity of the antioxidants could be measured without any pro-oxidant interference caused by metal ions (Salah, N. et al. Arch. Biochem. Biophys. 1995, 322, 339, incorporated herein by reference in its entirety). All solutions were made in ultra-pure water.
Protection of LDL from AAPH free radicals by the antioxidant decreased the anodic shift in a dose-dependent manner (FIG. 23). […] The increased hydrophobicity of compound 3 may be partly responsible for its improved LDL protection over compound 2.
The antioxidant activity of the antioxidants towards biomolecules was examined by studying their ability to protect LDL, lysozyme, and DNA from free radicals. For LDL, AAPH was used to induce free radical damage. AAPH was used instead of Cu^2+ for LDL oxidation so that the free radical scavenging activity of the antioxidants could be measured without any pro-oxidant interference caused by metal ions. The oxidation of human low-density lipoprotein was used as a model for evaluating the ability of the G1 dendrimers as chain-breaking antioxidants for lipid. Oxidation of LDL leads to changes in both the lipid and the protein moieties of the lipoprotein particle. Lipid peroxidation in LDL has been evaluated by a variety of methods. Due to the complexity of events that occur in lipoprotein oxidation, the electrophoretic migration pattern of oxidized LDL is one of the best methods to evaluate the extent of lipoprotein oxidation. LDL was incubated with 20 mM AAPH and increasing concentrations of the G1 dendrimers (0-37 μM in PBS) for 21 h at 37° C. The mixture was then subjected to agarose gel electrophoresis using the Ciba Corning Clinical Electrophoresis System. The agarose gel was stained with Fat Red 7B. In FIG. 30A (top), lane 1 is native LDL, and lanes 2-8 are AAPH-oxidized LDL with 0, 37, 18.5, 9, 4.5, 2 and 1 μM compound 4, respectively. In FIG. 30B (bottom), lane 1 is native LDL, and lanes 2-8 are AAPH-oxidized LDL with 0, 37, 18.5, 9, 4.5, 2 and 1 μM quercetin or Trolox, respectively.

DPPH radical assay = experiment: DPPH radical assay
Experimental: The DPPH assay was one of three electron transfer (ET) assays used to determine the antioxidant potential of compound 1 (described in Example 6) in comparison to its monomeric counterpart (syringaldehyde) as well as popular antioxidants. In an ET assay, an antioxidant donates electron(s) to a molecular probe, thus reducing it. From the assay, thermodynamic conversion of antioxidant to antioxidant radical (oxidation) is measured during a fixed time period.
The reduction of DPPH radical was determined for ascorbic acid, Trolox, syringaldehyde, and the compound 1 described in Example 6 as previously reported (Brand-Williams, et al. Lebensm.-Wiss U.-Technol. 1995, 28, 25-30, incorporated herein by reference in its entirety). In the DPPH assay, DPPH• radical was reduced by the antioxidant in methanol (Brand-Williams, et al. Lebensm.-Wiss U.-Technol. 1995, 28, 25-30, incorporated herein by reference in its entirety). […] The DPPH reagent was made in methanol. Antioxidant sample (10 μL) was added to 1.0 mL of reagent and the absorbance was monitored at 515 nm until a plateau was reached. Antioxidant concentrations were 50 μM syringaldehyde, 12.5 μM Trolox and ascorbic acid, and 5 μM compound 1. All samples were made in methanol and run in triplicates at room temperature.
The DPPH• scavenging capacity of each antioxidant was evaluated from the plot of the percentage DPPH• remaining when the kinetics reached a steady state as a function of the molar ratios of antioxidant to DPPH•. […] Using the curve, EC50 (the amount of antioxidant necessary to decrease the initial DPPH• concentration by 50%), antiradical power (1/EC50, ability to reduce the DPPH•), reaction stoichiometry (EC50×2, the concentration of antioxidant required to reduce 100% of DPPH• radical), and the number of reduced DPPH• per antioxidant molecule (1/stoichiometry) for each antioxidant were calculated as previously described (Brand-Williams, et al. Lebensm.-Wiss U.-Technol. 1995, 28, 25-30, incorporated herein by reference in its entirety) and are depicted in Table 1.
Antioxidant capacity of the compounds was assessed by the DPPH assay (Brand-Williams, et al. Lebensm. Wiss. Technol. 1995, 28, 25, incorporated herein by reference in its entirety). […] In FIG. 22, control with methanol is (X, dashed); compound 1 is (□), compound 2 is (•), compound 3 is (◯), and Trolox (Δ). All antioxidant concentrations were 5 μM.
The free-radical scavenging ability of the antioxidants was evaluated by the DPPH assay, as described above in Example 7.

[2] = ABTS radical cation decolorization assay; assay type: biochemical
From the text: We have tested AO activity of G1 (13) using ABTS as a radical source using a previously reported spectroscopic assay. The AO activity of the G1 (13) was compared to those of syringaldehyde, gallic acid, and vitamin C. If the phenolic OH group is the radical scavenging site, the expected AO activity of the G1 (13) should be 4 fold higher than that of syringaldehyde and 1.3 fold higher than that of gallic acid (which has three phenolic OH groups).
ABTS radical cation decolorization assay was used as previously described (Ozgen, et al. J. Agric. Food Chem. 2006, 54, 1151-1157, incorporated herein by reference in its entirety). Like the DPPH assay, this was also a decolorization assay and measured absorbance decrease at 734 nm as the ABTS radical (ABTS•+) is quenched by the antioxidant. The solvent used for the assay was ethanol. ABTS reagent was added to 1.0 mL solvent in a cuvet to bring the absorbance to 0.7. A 10 μL sample of antioxidant was then added, mixed, and the absorbance monitored at 734 nm for 6 min. Antioxidant concentrations were 14.4 μM Trolox, 11.4 μM ascorbic acid, 15.4 μM syringaldehyde, and 3 μM compound 1. The % decrease in absorbance at 6 min was plotted against antioxidant concentrations. The gradient of the line obtained by linear regression for a given antioxidant was divided by that obtained for Trolox to yield Trolox equivalent antioxidant (TEAC) values. All samples were made in ethanol and run in triplicates and at room temperature.

[3] = FRAP assay (reduction of Fe(III) to Fe(II)); assay type: biochemical; set-up: Slope of ΔA593 versus concentration: unit not given here; conditions: for Slope of ΔA593 versus concentration: 37° C.
Experimental: The FRAP assay was performed as previously described (Pulido, et al. J. Agric. Food Chem. 2000, 48, 3396-3402, incorporated herein by reference in its entirety). In the FRAP assay, ferric was reduced by the antioxidant to ferrous via electron transfer (Benzie et al., Anal. Biochem. 1996, 239, 70-76, incorporated herein by reference in its entirety). This assay measured the redox potential of an antioxidant which is used as an estimate of antioxidant efficiency and expressed as a FRAP value. […] The compound 1 as well as the other antioxidants was dissolved in methanol. […] Reaction kinetics of the compound 1 and other antioxidants were obtained by plotting the change in slopes at various times and are shown in FIG. 18. […] This time-dependent increase in absorbance was previously reported (Pulido, et al. J. Agric. Food Chem. 2000, 48, 3396-3402, incorporated herein by reference in its entirety) and was especially significant with polyphenolic compounds. […] However, the FRAP value increased with time, reaching 2.5 in 60 min. […] J. Agric. Food Chem. 2000, 48, 3396-3402, incorporated herein by reference in its entirety). […] EC1 values, and therefore ferric reducing ability, were lower at longer reaction times as expected from the kinetic behavior of the antioxidants (Pulido, et al. J. Agric. Food Chem. 2000, 48, 3396-3402, incorporated herein by reference in its entirety).

Q: What does the source list for `COc1cc(CN(Cc2ccc(CN(Cc3ccc(O)c(OC)c3)Cc3ccc(O)c(OC)c3)cc2)Cc2ccc(O)c(OC)c2)ccc1O` [Compound 2]?
A: concentration at which some DNA protection was observed (plasmid DNA pBR 322): ≥ 45 µM; protection of linoleic acid from oxidation [1]: about twice weaker than compound 1

Q: What does the source list for `COc1cc(CN(Cc2ccc(CN(Cc3cc(I)c(O)c(OC)c3)Cc3cc(I)c(O)c(OC)c3)cc2)Cc2cc(I)c(O)c(OC)c2)cc(I)c1O` [Compound 3]?
A: DNA protection at all concentrations used (plasmid DNA pBR 322; 0.35-45 μM): ineffective; protection of linoleic acid from oxidation [1]: about twice weaker than compound 1; protection of LDL from AAPH free radicals (anodic migration) (Human LDL): better LDL protection than compound 2

Q: Which “quenching of DDPH•” value (DPPH radical assay; 40 μM final concentration in cuvet) does the source give for `NCc1ccc(CN)cc1` [4-aminomethylbenzylamine] here?
A: Its value is 6%.

Q: And the “% A470 nm” value [1]?
A: The value was 16%.

Q: Which results are given for `COc1cc(C=O)cc(OC)c1O` [Syringaldehyde]?
A: # of DDPH• reduced per antioxidant molecule (1/stoichiometry) (DPPH radical assay): 0.33; Antioxidant Capacity Relative to Trolox, DPPH (DPPH radical assay): 0.18; DPPH assay, times weaker than Trolox (DPPH radical assay): 5.6 times; DPPH• remaining in one minute (DPPH radical assay; 50 μM syringaldehyde): 96%; time to reach plateau / steady state with DPPH• (DPPH radical assay; 50 μM syringaldehyde, 12.5 μM Trolox and ascorbic acid, 5 μM compound 1, methanol, room temperature, 515 nm): approximately 45 min; Antioxidant Capacity Relative to Trolox, ABTS [2]: 0.98; IC50 ([2]; final concentration in the cuvet, read-out: concentration at which 50% inhibition of ABTS•+ was observed): ~11 µM; Slope of % decrease in absorbance at 6 min versus antioxidant concentration ([2]; linear regression, concentration in μM): 3.9; TEAC ([2]; slope divided by that of Trolox, % decrease in A734 at 6 min, ethanol): 0.98; Antioxidant Capacity Relative to Trolox, FRAP 5 min ([3]; 5 min): 2.3; EC1 (concentration with ferric-TPTZ reducing ability equivalent to 1 mM FeSO4.7H2O) ([3]; 5 min): 194 µM; FRAP value relative to Fe(II) ([3]; 5 min): 5.1; FRAP value relative to Fe(II) ([3]; 15 min): 6.7; FRAP value relative to Fe(II) ([3]; 30 min): 8.4; Antioxidant Capacity Relative to Trolox, FRAP 60 min ([3]; 60 min): 4 and 4.2; EC1 (concentration with ferric-TPTZ reducing ability equivalent to 1 mM FeSO4.7H2O) ([3]; 60 min): 108 µM; FRAP value relative to Fe(II) ([3]; 60 min): 9.2; Slope of ΔA593 versus concentration ([3]; Reaction time 5 min): 0.062; Slope of ΔA593 versus concentration ([3]; Reaction time 15 min): 0.081; Slope of ΔA593 versus concentration ([3]; Reaction time 30 min): 0.101; Slope of ΔA593 versus concentration ([3]; Reaction time 60 min): 0.111; % A470 nm [1]: 12%
